The target of one assay is His-AKT (Full Length) (Homo sapiens (Human), UniProt P31749). As to the kind of experiment: AKT enzyme assay. The class given is biochemical. Particulars: 160 uM ATP, 90 min at 25° C. As to the method: A TTP Mosquito liquid handling instrument was used to place 125 nl of the appropriate concentration of inhibitor in 100% DMSO (for a dose response curve calculation) into each well of a 384-well plate. To this reaction components were added to a final volume of 12.5 μl: • 0.1 ng/μl His-AKT (Full Length), (Invitrogen, Part # P2999, Lot #641228C). • 160 uM ATP (Fluka, 02055) • 1 mM DTT (Sigma, D0632) • 1 mM MgCl2 (Sigma, M1028) • 1 μM substrate peptide (sequence FITC-AHA-GRPRTSSFAEG-NH2), • synthesized by Tufts Peptide Synthesis service. • 100 mM HEPES pH 7.5 (Calbiochem, 391338) • 0.015% Brij-35 (Sigma, B4184)
The reaction was incubated for 90 min at 25° C., and then stopped by the addition of 70 μl of Stop buffer (100 mM HEPES pH 7.5, 0.015% Brij-35, 10 mM EDTA (Sigma, E7889)).
The plate was read on a Caliper LC 3000 in an Off-Chip mobility shift assay format, using the following parameters for a 12-sipper chip: screening pressure −2.3 psi, upstream voltage −500, and downstream voltage −3000. These conditions caused unphosphorylated substrate and phosphorylated product peptide to resolve as separate peaks allowing direct measurement of percentage of conversion of substrate to product. The percent conversion was plotted against concentration of inhibitor to produce a sigmoidal dose response curve, from which an IC50 was calculated.

The target of assay [1] is P70S6K (T412E mutant, Millipore) (Homo sapiens (Human), UniProt P23443, T412E). As to the kind of experiment: P70S6K enzyme assay. The class given is biochemical. The following applies: 24 μM ATP, 90 min at 25° C. The procedure: P70S6K inhibitor compounds were diluted and plated in 96 well plates. A reaction mixture including the following components was then added to the compound plate to initiate the enzyme reaction; P70S6K (3 nM, T412E mutant, Millipore) was mixed with 24 μM ATP in an assay buffer containing 100 mM Hepes (pH 7.5), 5 mM MgCl2, 1 mM DTT, 0.015% Brij and 1 μM of the substrate peptide FITC-AHA-AKRRRLSSLRA-OH (derived from the S6 ribosomal protein sequence, FITC=fluorescein isothiocyanate, AHA=6-aminohexanoic acid). The reaction was incubated for 90 min at 25° C., before the addition of 10 mM EDTA to stop the reaction. The proportion of substrate and product (phosphorylated) peptide was analysed on a Caliper Life Sciences Lab Chip 3000, using a pressure of −1.4 psi, and upstream and downstream voltages of −3000 and −700 respectively. Product peaks were resolved before substrate peaks on the resulting chromatograms.
P70S6K (T412E mutant, Millipore), sequence (P23443 whole entry T412E): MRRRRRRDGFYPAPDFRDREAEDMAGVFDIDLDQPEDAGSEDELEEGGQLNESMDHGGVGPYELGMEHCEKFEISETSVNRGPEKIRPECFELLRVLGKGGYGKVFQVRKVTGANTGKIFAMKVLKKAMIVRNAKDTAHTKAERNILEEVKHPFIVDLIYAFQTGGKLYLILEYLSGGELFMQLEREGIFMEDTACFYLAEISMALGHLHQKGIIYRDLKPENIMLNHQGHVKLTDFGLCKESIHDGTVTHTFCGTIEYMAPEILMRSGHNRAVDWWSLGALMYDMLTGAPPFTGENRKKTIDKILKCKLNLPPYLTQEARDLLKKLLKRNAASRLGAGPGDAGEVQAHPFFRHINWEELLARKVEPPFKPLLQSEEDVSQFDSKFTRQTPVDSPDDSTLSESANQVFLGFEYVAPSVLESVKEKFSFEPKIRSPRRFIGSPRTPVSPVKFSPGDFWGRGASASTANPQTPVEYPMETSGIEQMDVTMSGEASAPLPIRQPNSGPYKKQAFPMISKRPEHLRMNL

His-AKT (Full Length), sequence (P31749 whole entry): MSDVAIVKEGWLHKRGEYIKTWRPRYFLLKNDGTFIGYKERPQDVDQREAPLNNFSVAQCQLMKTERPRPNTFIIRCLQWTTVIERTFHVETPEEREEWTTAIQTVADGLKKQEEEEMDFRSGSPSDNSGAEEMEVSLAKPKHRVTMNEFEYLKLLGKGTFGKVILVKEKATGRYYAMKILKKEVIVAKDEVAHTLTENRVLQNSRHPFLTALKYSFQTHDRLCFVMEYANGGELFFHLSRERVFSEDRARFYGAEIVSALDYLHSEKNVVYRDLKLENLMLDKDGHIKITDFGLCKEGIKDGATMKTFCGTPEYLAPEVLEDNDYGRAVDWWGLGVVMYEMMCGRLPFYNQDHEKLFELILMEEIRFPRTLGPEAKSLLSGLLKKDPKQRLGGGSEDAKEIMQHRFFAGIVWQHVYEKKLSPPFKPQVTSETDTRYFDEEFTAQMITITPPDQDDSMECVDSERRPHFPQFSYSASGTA

For the compound `CN(C)CC(c1ccc(Cl)cc1)N1CCN(c2ncnc3c2NC(=O)CN3)CC1` (stereo not shown) [Compound A26, 4-{4-[2-dimethylamino-1-(4-chloro-phenyl)-ethyl]-piperazin-1-yl}-7,8-dihydro-5H-pteridin-6-one], the IC50 lay in the range of 101 to 500 nM against His-AKT (Full Length) and 501 to 1000 nM in assay [1].

Turning to `CN(C)CC(c1cccc(Cl)c1)N1CCN(c2ncnc3c2NC(=O)CN3)CC1` (stereo not shown) [Compound A27, 4-{4-[2-dimethylamino-1-(3-chloro-phenyl)-ethyl]-piperazin-1-yl}-7,8-dihydro-5H-pteridin-6-one], the IC50 (at His-AKT (Full Length); in assay [1]) was more than 1000 nM in each case.

Regarding `CN(C)CC(c1ccc(C(F)(F)F)cc1)N1CCN(c2ncnc3c2NC(=O)CN3)CC1` (stereo not shown) [Compound A28, 4-{4-[2-dimethylamino-1-(4-trifluoromethyl-phenyl)-ethyl]-piperazin-1-yl}-7,8-dihydro-5H-pteridin-6-one], the values for the 50% inhibitory concentration (IC50) (at His-AKT (Full Length); in assay [1]) were 101 to 500 nM and 501 to 1000 nM, respectively.

Take `O=C1CNc2ncnc(N3CCN(C(CN4CCCC4)c4ccc(F)cc4)CC3)c2N1` (stereo not shown) [Compound A29, 4-{4-[1-(4-fluoro-phenyl)-2-(pyrrolidin-yl)-ethyl]-piperazin-1-yl}-7,8-dihydro-5H-pteridin-6-one]: the IC50 (against His-AKT (Full Length); in assay [1]) was more than 1000 nM each time.

Turning to `O=C1CNc2ncnc(N3CCN(C(CN4CCCC4)c4ccc(Cl)cc4)CC3)c2N1` (stereo not shown) [Compound A30, 4-{4-[1-(4-chloro-phenyl)-2-(pyrrolidin-yl)-ethyl]-piperazin-1-yl}-7,8-dihydro-5H-pteridin-6-one], the concentration for half-maximal inhibition (IC50) (against His-AKT (Full Length); in assay [1]) was 501 to 1000 nM in each case.

As to `O=C1CNc2ncnc(N3CCN(C(CN4CCCCC4)c4ccc(F)cc4)CC3)c2N1` (stereo not shown) [Compound A31, 4-{4-[1-(4-fluoro-phenyl)-2-(piperidin-yl)-ethyl]-piperazin-1-yl}-7,8-dihydro-5H-pteridin-6-one], the IC50 (at His-AKT (Full Length); in assay [1]) was more than 1000 nM in each case.

For `O=C1CNc2ncnc(N3CCN(C(CN4CCCCC4)c4ccc(Cl)cc4)CC3)c2N1` (stereo not shown) [Compound A32, 4-{4-[1-(4-chloro-phenyl)-2-(piperidin-yl)-ethyl]-piperazin-1-yl}-7,8-dihydro-5H-pteridin-6-one], the IC50 is 501 to 1000 nM against His-AKT (Full Length) and more than 1000 nM in assay [1].

Consider `O=C1CNc2ncnc(N3CCN(C(CN4CCCCC4)c4ccc(C(F)(F)F)cc4)CC3)c2N1` (stereo not shown) [Compound A33, 4-{4-[1-(4-trifluoro-phenyl)-2-(piperidin-yl)-ethyl]-piperazin-1-yl}-7,8-dihydro-5H-pteridin-6-one], for which the IC50 was 501 to 1000 nM on His-AKT (Full Length) and more than 1000 nM in assay [1].

Turning to `O=C1CNc2ncnc(N3CCN(C(CN4CCCC4)c4ccc(C(F)(F)F)cc4)CC3)c2N1` (stereo not shown) [Compound A34, 4-{4-[2-Pyrrolidin-1-yl-1-(4-trifluoromethyl-phenyl)-ethyl]-piperazin-1-yl}-7,8-dihydro-5H-pteridin-6-one], the IC50 (against His-AKT (Full Length); in assay [1]) was more than 1000 nM in each case.

`O=C1CNc2ncnc(N3CCN(C(CN4CCCC4)c4ccccc4F)CC3)c2N1` (stereo not shown) [Compound A35, 4-(4-(1-(2-fluorophenyl)-2-(pyrrolidin-1-yl)ethyl)piperazin-1-yl)-7,8-dihydropteridin-6(5H)-one]: the IC50 (at His-AKT (Full Length); in assay [1]) was more than 1000 nM throughout.

On to `CN(C)CC(c1ccccc1F)N1CCN(c2ncnc3c2NC(=O)CN3)CC1` (stereo not shown) [Compound A36, 4-(4-(2-(dimethylamino)-1-(2-fluorophenyl)ethyl)piperazin-1-yl)-7,8-dihydropteridin-6(5H)-one], for which the IC50 (on His-AKT (Full Length); in assay [1]) was more than 1000 nM in each case.

Take `O=C1CNc2ncnc(N3CCN(C(CN4CCC4)c4ccccc4F)CC3)c2N1` (stereo not shown) [Compound A37, 4-(4-(2-(azetidin-1-yl)-1-(2-fluorophenyl)ethyl)piperazin-1-yl)-7,8-dihydropteridin-6(5H)-one]: the IC50 (against His-AKT (Full Length); in assay [1]) was more than 1000 nM in each case.

Take `O=C1CNc2ncnc(N3CCN(C(CN4CCCCC4)c4ccccc4F)CC3)c2N1` (stereo not shown) [Compound A38, 4-(4-(1-(2-fluorophenyl)-2-(piperidin-1-yl)ethyl)piperazin-1-yl)-7,8-dihydropteridin-6(5H)-one]: the IC50 (against His-AKT (Full Length); in assay [1]) was more than 1000 nM each time.

As for `NCC(c1ccccc1Cl)N1CCN(c2ncnc3c2NC(=O)CN3)CC1` (stereo not shown) [Compound A39, 4-(4-(2-amino-1-(2-chlorophenyl)ethyl)piperazin-1-yl)-7,8-dihydropteridin-6(5H)-one], the IC50 (at His-AKT (Full Length); in assay [1]) was more than 1000 nM in each case.

With `CN(C)CC(c1ccccc1Cl)N1CCN(c2ncnc3c2NC(=O)CN3)CC1` (stereo not shown) [Compound A40, 4-(4-(1-(2-chlorophenyl)-2-(dimethylamino)ethyl)piperazin-1-yl)-7,8-dihydropteridin-6(5H)-one], the IC50 (against His-AKT (Full Length); in assay [1]) was more than 1000 nM each time.

For `CNCC(c1ccccc1Cl)N1CCN(c2ncnc3c2NC(=O)CN3)CC1` (stereo not shown) [Compound A41, 4-(4-(1-(2-chlorophenyl)-2-(methylamino)ethyl)piperazin-1-yl)-7,8-dihydropteridin-6(5H)-one], the IC50 (against His-AKT (Full Length); in assay [1]) was more than 1000 nM throughout.

With `O=C1CNc2ncnc(N3CCN(C(CN4CCC4)c4ccccc4Cl)CC3)c2N1` (stereo not shown) [Compound A42, 4-(4-(2-(azetidin-1-yl)-1-(2-chlorophenyl)ethyl)piperazin-1-yl)-7,8-dihydropteridin-6(5H)-one], the IC50 (against His-AKT (Full Length); in assay [1]) was more than 1000 nM in each case.

With `O=C1CNc2ncnc(N3CCN(C(CN4CCCC4)c4ccccc4Cl)CC3)c2N1` (stereo not shown) [Compound A43, 4-(4-(1-(2-chlorophenyl)-2-(pyrrolidin-1-yl)ethyl)piperazin-1-yl)-7,8-dihydropteridin-6(5H)-one], the IC50 (on His-AKT (Full Length); in assay [1]) was more than 1000 nM each time.

Consider `O=C1CNc2ncnc(N3CCN(C(CN4CCCCC4)c4ccccc4Cl)CC3)c2N1` (stereo not shown) [Compound A44, 4-(4-(1-(2-chlorophenyl)-2-(piperidin-1-yl)ethyl)piperazin-1-yl)-7,8-dihydropteridin-6(5H)-one], for which the IC50 (on His-AKT (Full Length); in assay [1]) was more than 1000 nM in each case.

Regarding `Cc1ccccc1C(CN(C)C)N1CCN(c2ncnc3c2NC(=O)CN3)CC1` (stereo not shown) [Compound A45, 4-(4-(2-(dimethylamino)-1-(o-tolyl)ethyl)piperazin-1-yl)-7,8-dihydropteridin-6(5H)-one], the IC50 (on His-AKT (Full Length); in assay [1]) was more than 1000 nM in each case.

With `Cc1ccccc1C(CN1CCCC1)N1CCN(c2ncnc3c2NC(=O)CN3)CC1` (stereo not shown) [Compound A46, 4-(4-(2-(pyrrolidin-1-yl)-1-(o-tolyl)ethyl)piperazin-1-yl)-7,8-dihydropteridin-6(5H)-one], the IC50 (at His-AKT (Full Length); in assay [1]) was more than 1000 nM in each case.

`Cc1ccccc1C(CN1CCCCC1)N1CCN(c2ncnc3c2NC(=O)CN3)CC1` (stereo not shown) [Compound A47, 4-(4-(2-(piperidin-1-yl)-1-(o-tolyl)ethyl)piperazin-1-yl)-7,8-dihydropteridin-6(5H)-one]: the IC50 (on His-AKT (Full Length); in assay [1]) was more than 1000 nM each time.

As to `NCC(c1ccc(F)c(F)c1)N1CCN(c2ncnc3c2NC(=O)CN3)CC1` (stereo not shown) [Compound A48], the IC50 (against His-AKT (Full Length); in assay [1]) was more than 1000 nM throughout.

On to `CN(C)CC(c1ccc(F)c(F)c1)N1CCN(c2ncnc3c2NC(=O)CN3)CC1` (stereo not shown) [Compound A49, 4-(4-(1-(3,4-difluorophenyl)-2-(dimethylamino)ethyl)piperazin-1-yl)-7,8-dihydropteridin-6(5H)-one], for which the IC50 (against His-AKT (Full Length); in assay [1]) was more than 1000 nM in each case.

In the case of `CNCC(c1ccc(F)c(F)c1)N1CCN(c2ncnc3c2NC(=O)CN3)CC1` (stereo not shown) [Compound A50, 4-(4-(1-(3,4-difluorophenyl)-2-(methylamino)ethyl)piperazin-1-yl)-7,8-dihydropteridin-6(5H)-one], the IC50 (against His-AKT (Full Length); in assay [1]) was more than 1000 nM each time.

`O=C1CNc2ncnc(N3CCN(C(CN4CCC4)c4ccc(F)c(F)c4)CC3)c2N1` (stereo not shown) [Compound A51, 4-(4-(2-(azetidin-1-yl)-1-(3,4-difluorophenyl)ethyl)piperazin-1-yl)-7,8-dihydropteridin-6(5H)-one]: the IC50 (against His-AKT (Full Length); in assay [1]) was more than 1000 nM in each case.

Broadly, the IC50 is the midpoint of a concentration-inhibition curve. Read a low IC50 as greater potency in that assay.

These data come from US10287300B2 (Merck Patent GmbH, priority 2012, dated 2019).
